# Test results reported in patent US20230148214A1, “INDAZOLES AND AZAINDAZOLES AS LRRK2 INHIBITORS” (ESCAPE Bio, Inc., priority 2020, published 2023).
# How the values were obtained:
# LRRK2 G2019S = molecular target: T1, LRRK2 G2019S (Homo sapiens, UniProt Q5S007, G2019S); assay: LRRK2 Kinase Activity Assay (LanthaScreen TR-FRET), G2019S; assay type: biochemical; conditions: recombinant G2019S-LRRK2, 25 μM ATP, 400 nM LRRKtide, 60 min; class symbols
# T1 construct: purchased Life Technologies PV4881
# T1 sequence (Q5S007 whole entry G2019S): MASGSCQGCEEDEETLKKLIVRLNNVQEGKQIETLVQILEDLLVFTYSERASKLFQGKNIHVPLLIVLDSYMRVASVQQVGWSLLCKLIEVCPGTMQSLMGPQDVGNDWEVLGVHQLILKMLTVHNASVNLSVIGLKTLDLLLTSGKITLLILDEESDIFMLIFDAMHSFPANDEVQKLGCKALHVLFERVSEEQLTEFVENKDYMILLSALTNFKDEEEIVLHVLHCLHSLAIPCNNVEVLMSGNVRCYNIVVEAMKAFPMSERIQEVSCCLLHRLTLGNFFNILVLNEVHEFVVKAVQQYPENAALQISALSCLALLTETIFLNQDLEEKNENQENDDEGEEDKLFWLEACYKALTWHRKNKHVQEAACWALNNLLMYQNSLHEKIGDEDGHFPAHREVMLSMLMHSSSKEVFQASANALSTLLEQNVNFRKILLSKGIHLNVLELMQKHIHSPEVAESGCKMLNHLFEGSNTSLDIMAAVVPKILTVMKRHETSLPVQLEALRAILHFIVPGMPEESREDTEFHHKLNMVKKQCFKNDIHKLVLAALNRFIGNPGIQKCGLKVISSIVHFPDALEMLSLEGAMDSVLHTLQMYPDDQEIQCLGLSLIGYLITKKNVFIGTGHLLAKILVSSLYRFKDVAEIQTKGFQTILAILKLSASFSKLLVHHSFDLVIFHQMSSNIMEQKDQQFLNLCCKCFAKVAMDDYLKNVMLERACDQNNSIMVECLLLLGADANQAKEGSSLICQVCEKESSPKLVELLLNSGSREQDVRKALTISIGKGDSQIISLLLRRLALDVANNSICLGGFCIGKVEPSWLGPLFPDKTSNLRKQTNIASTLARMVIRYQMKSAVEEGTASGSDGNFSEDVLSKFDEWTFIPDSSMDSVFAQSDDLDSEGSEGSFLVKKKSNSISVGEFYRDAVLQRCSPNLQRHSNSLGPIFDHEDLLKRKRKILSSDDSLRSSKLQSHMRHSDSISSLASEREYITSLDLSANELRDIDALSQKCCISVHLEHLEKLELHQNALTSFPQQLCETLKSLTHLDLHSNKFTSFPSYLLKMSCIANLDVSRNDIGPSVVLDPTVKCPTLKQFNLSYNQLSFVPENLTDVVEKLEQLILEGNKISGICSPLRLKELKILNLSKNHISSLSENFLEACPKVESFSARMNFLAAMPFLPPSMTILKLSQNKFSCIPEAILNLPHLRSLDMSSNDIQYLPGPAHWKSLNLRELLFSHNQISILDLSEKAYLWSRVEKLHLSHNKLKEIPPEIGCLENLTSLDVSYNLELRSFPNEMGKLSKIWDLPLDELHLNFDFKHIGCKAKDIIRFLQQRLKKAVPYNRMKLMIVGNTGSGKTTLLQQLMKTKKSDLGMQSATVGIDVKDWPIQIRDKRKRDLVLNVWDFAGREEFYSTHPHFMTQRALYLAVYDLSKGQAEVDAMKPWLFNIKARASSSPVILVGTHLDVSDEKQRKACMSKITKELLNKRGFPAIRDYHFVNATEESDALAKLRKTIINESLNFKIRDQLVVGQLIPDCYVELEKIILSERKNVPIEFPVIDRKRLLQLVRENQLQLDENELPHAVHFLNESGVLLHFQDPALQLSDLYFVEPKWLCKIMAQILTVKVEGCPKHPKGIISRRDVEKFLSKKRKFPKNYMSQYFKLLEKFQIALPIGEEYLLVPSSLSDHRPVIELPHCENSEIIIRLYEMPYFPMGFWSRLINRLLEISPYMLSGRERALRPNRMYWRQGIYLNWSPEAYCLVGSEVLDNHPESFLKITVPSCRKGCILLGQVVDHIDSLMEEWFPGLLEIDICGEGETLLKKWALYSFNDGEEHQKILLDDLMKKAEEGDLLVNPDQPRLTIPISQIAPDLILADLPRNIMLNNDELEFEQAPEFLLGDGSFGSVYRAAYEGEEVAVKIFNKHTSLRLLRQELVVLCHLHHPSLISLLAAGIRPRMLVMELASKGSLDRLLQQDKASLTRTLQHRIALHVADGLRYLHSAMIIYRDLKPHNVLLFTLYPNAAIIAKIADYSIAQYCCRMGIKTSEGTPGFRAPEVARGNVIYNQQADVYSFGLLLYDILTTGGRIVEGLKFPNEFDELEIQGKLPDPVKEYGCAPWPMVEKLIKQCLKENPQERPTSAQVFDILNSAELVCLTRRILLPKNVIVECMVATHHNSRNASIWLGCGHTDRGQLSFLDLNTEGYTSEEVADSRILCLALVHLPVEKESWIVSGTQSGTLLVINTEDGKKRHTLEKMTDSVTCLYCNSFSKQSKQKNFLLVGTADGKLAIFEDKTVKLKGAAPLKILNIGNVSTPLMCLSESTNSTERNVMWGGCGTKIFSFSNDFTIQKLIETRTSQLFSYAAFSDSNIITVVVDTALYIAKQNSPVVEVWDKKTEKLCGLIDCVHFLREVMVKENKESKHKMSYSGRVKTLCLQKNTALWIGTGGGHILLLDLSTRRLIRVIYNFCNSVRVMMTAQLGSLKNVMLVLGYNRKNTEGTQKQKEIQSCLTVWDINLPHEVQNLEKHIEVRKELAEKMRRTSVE
# Procedure, shortened: (§1)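 IC50 fitted to the compound-dependent loss of TR-FRET signal. Each kinase form, wild type or G2019S, phosphorylated the fluorescein-tagged ERM-derived LRRKtide in the presence of ATP and compound dilutions over 60 min at room temperature; quench contained 10 mM EDTA and 2 nM anti-pERM antibody (final).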
# LRRK2 WT = molecular target: T2, LRRK2 WT (Homo sapiens, UniProt Q5S007); assay: LRRK2 Kinase Activity Assay (LanthaScreen TR-FRET), wild type; assay type: biochemical; conditions: recombinant wild type LRRK2, 25 μM ATP, 400 nM LRRKtide, 60 min
# T2 construct: purchased Life Technologies PR8604B
# T2 sequence (Q5S007 whole entry): as the sequence (Q5S007 whole entry G2019S) above, with S2019G counted along it
# Procedure, shortened: as §1
SMILES,IC50 (LRRK2 G2019S) [nM],IC50 (LRRK2 WT; class symbols) [nM],IC50 (LRRK2 WT; numeric bound) [nM]
"N#Cc1ccc2c(c1)CCC[C@@H]2Nc1ccc2[nH]nc(-c3ccc[nH]3)c2c1 (single isomer, unassigned) [Example 79, 5-((3-(1H-Pyrrol-2-yl)-1H-indazol-5-yl)amino)-5,6,7,8-tetrahydronaphthalene-2-carbonitrile]",< 100,100 to 1000,
"CC(C)(C)OC(=O)n1cccc1-c1n[nH]c2ccc(N[C@H]3CCCc4cc(C#N)ccc43)cc12 (single isomer, unassigned) [Example 80, tert-Butyl 2-(5-((6-cyano-1,2,3,4-tetrahydronaphthalen-1-yl)amino)-1H-indazol-3-yl)-1H-pyrrole-1-carboxylate]",100 to 1000,,> 10000
"N#Cc1ccc2c(c1)CCC[C@@H]2Nc1ccc2[nH]nc(-c3ccc(C(=O)N4CCOCC4)cc3)c2c1 (single isomer, unassigned) [Example 81, 5-((3-(4-(Morpholine-4-carbonyl)phenyl)-1H-indazol-5-yl)amino)-5,6,7,8-tetrahydronaphthalene-2-carbonitrile]",< 100,< 100,
"N#Cc1ccc2c(c1)CCC[C@@H]2Nc1ccc2[nH]nc(-c3ccc4c(c3)NC(=O)C4)c2c1 (single isomer, unassigned) [Example 82, 5-((3-(2-Oxoindolin-6-yl)-1H-indazol-5-yl)amino)-5,6,7,8-tetrahydronaphthalene-2-carbonitrile]",< 100,< 100,
"N#Cc1ccc2c(c1)CCC[C@@H]2Nc1ccc2[nH]nc(-c3ccc4c(c3)OCCO4)c2c1 (single isomer, unassigned) [Example 84, 5-((3-(2,3-Dihydrobenzo[b][1,4]dioxin-6-yl)-1H-indazol-5-yl)amino)-5,6,7,8-tetrahydronaphthalene-2-carbonitrile]",< 100,100 to 1000,
"CC(=O)Nc1cccc(-c2n[nH]c3ccc(N[C@H]4CCCc5cc(C#N)ccc54)cc23)c1 (single isomer, unassigned) [Example 85, N-(3-(5-((6-Cyano-1,2,3,4-tetrahydronaphthalen-1-yl)amino)-1H-indazol-3-yl)phenyl)acetamide]",< 100,< 100,
"N#Cc1ccc2c(c1)CCC[C@@H]2Nc1ccc2[nH]nc(C3=CCC4(CC3)OCCO4)c2c1 (single isomer, unassigned) [Example 87, 5-((3-(1,4-Dioxaspiro[4.5]dec-7-en-8-yl)-1H-indazol-5-yl)amino)-5,6,7,8-tetrahydronaphthalene-2-carbonitrile]",100 to 1000,1000 to 10000,
"N#Cc1ccc2c(c1)CCC[C@@H]2Nc1ccc2[nH]nc(C3=CCOCC3)c2c1 (single isomer, unassigned) [Example 88, 5-((3-(3,6-Dihydro-2H-pyran-4-yl)-1H-indazol-5-yl)amino)-5,6,7,8-tetrahydronaphthalene-2-carbonitrile]",< 100,100 to 1000,
"N#Cc1ccc2c(c1)CCC[C@@H]2Nc1ccc2[nH]nc(-c3ccc(C#N)nc3)c2c1 (single isomer, unassigned) [Example 91, 5-(5-((6-Cyano-1,2,3,4-tetrahydronaphthalen-1-yl)amino)-1H-indazol-3-yl)picolinonitrile]",< 100,100 to 1000,
"N#Cc1ccc2c(c1)CCC[C@@H]2Nc1ccc2[nH]nc(/C=C/c3ccccc3)c2c1 (single isomer, unassigned) [Example 93, (E)-5-((3-Styryl-1H-indazol-5-yl)amino)-5,6,7,8-tetrahydronaphthalene-2-carbonitrile]",< 100,< 100,
"CN1CC=C(c2n[nH]c3ccc(N[C@H]4CCCc5cc(C#N)ccc54)cc23)CC1 (single isomer, unassigned) [Example 94, 5-((3-(1-Methyl-1,2,3,6-tetrahydropyridin-4-yl)-1H-indazol-5-yl)amino)-5,6,7,8-tetrahydronaphthalene-2-carbonitrile]",1000 to 10000,,> 10000
"N#Cc1ccc2c(c1)CCC[C@@H]2Nc1ccc2[nH]nc(-c3cnn4c3CCC4)c2c1 (single isomer, unassigned) [Example 96, 5-((3-(5,6-Dihydro-4H-pyrrolo[1,2-b]pyrazol-3-yl)-1H-indazol-5-yl)amino)-5,6,7,8-tetrahydronaphthalene-2-carbonitrile]",< 100,< 100,
"N#Cc1ccc2c(c1)CCC[C@@H]2Nc1ccc2[nH]nc(-c3cccnc3)c2c1 (single isomer, unassigned) [Example 98, 5-((3-(Pyridin-3-yl)-1H-indazol-5-yl)amino)-5,6,7,8-tetrahydronaphthalene-2-carbonitrile]",< 100,< 100,
"C/C=C\c1n[nH]c2ccc(N[C@H]3CCCc4cc(C#N)ccc43)cc12 (single isomer, unassigned) [Example 99, (Z)-5-((3-(Prop-1-en-1-yl)-1H-indazol-5-yl)amino)-5,6,7,8-tetrahydronaphthalene-2-carbonitrile]",< 100,100 to 1000,
"COc1c(C#N)ccc2c1CCC[C@@H]2Nc1ccc2[nH]nc(-c3cnco3)c2c1 (single isomer, unassigned) [Example 101, enantiomer 1, 1-Methoxy-5-{[3-(1,3-oxazol-5-yl)-1H-indazol-5-yl]amino}-5,6,7,8-tetrahydronaphthalene-2-carbonitrile]",< 100,< 100,
"COc1nc2c(cc1C#N)CCC[C@@H]2Nc1ccc2[nH]nc(-c3cnco3)c2c1 (single isomer, unassigned) [Example 102, enantiomer 1, 2-Methoxy-8-((3-(oxazol-5-yl)-1H-indazol-5-yl)amino)-5,6,7,8-tetrahydroquinoline-3-carbonitrile]",< 100,< 100,
"COc1nc2c(cc1C#N)CCC[C@@H]2Nc1ccc2[nH]nc(-c3cnco3)c2c1 (single isomer, unassigned) [Example 102, enantiomer 2, 2-Methoxy-8-((3-(oxazol-5-yl)-1H-indazol-5-yl)amino)-5,6,7,8-tetrahydroquinoline-3-carbonitrile]",100 to 1000,1000 to 10000,
"N#Cc1cnc2c(c1)CC[C@@H]2Oc1ccc2[nH]nc(-c3cnco3)c2c1 (single isomer, unassigned) [Example 103, enantiomer 1, 7-((3-(Oxazol-5-yl)-1H-indazol-5-yl)oxy)-6,7-dihydro-5H-cyclopenta[b]pyridine-3-carbonitrile]",< 100,< 100,
"N#Cc1ccc2c(c1)CCCC[C@@H]2Nc1ccc2[nH]nc(-c3cnco3)c2c1 (single isomer, unassigned) [Example 104, enantiomer 1, 5-((3-(Oxazol-5-yl)-1H-indazol-5-yl)amino)-6,7,8,9-tetrahydro-5H-benzo[7]annulene-2-carbonitrile]",< 100,< 100,
"N#Cc1ccc2c(c1)CCCC[C@@H]2Nc1ccc2[nH]nc(-c3cnco3)c2c1 (single isomer, unassigned) [Example 104, enantiomer 2, 5-((3-(Oxazol-5-yl)-1H-indazol-5-yl)amino)-6,7,8,9-tetrahydro-5H-benzo[7]annulene-2-carbonitrile]",100 to 1000,100 to 1000,

# Now from value to compound:
IC50 (LRRK2 G2019S) [nM],IC50 (LRRK2 WT; class symbols) [nM],IC50 (LRRK2 WT; numeric bound) [nM],SMILES
< 100,100 to 1000,,"N#Cc1ccc2c(c1)CCC[C@@H]2Nc1ccc2[nH]nc(-c3ccc4[nH]ccc4c3)c2c1 (single isomer, unassigned) [Example 78, 5-((3-(1H-Indol-5-yl)-1H-indazol-5-yl)amino)-5,6,7,8-tetrahydronaphthalene-2-carbonitrile]"
< 100,< 100,,"Cn1cc2cc(-c3n[nH]c4ccc(N[C@H]5CCCc6cc(C#N)ccc65)cc34)ccc2n1 (single isomer, unassigned) [Example 83, 5-((2′-Methyl-1H,2′H-[3,5′-biindazol]-5-yl)amino)-5,6,7,8-tetrahydronaphthalene-2-carbonitrile]"
< 100,< 100,,"CN(C)C(=O)c1cccc(-c2n[nH]c3ccc(N[C@H]4CCCc5cc(C#N)ccc54)cc23)c1 (single isomer, unassigned) [Example 86, 3-(5-((6-Cyano-1,2,3,4-tetrahydronaphthalen-1-yl)amino)-1H-indazol-3-yl)-N,N-dimethylbenzamide]"
< 100,< 100,,"N#Cc1cccc(-c2n[nH]c3ccc(N[C@H]4CCCc5cc(C#N)ccc54)cc23)c1 (single isomer, unassigned) [Example 89, 5-((3-(3-Cyanophenyl)-1H-indazol-5-yl)amino)-5,6,7,8-tetrahydronaphthalene-2-carbonitrile]"
< 100,100 to 1000,,"COc1ccc(-c2n[nH]c3ccc(N[C@H]4CCCc5cc(C#N)ccc54)cc23)cc1 (single isomer, unassigned) [Example 92, 5-((3-(4-Methoxyphenyl)-1H-indazol-5-yl)amino)-5,6,7,8-tetrahydronaphthalene-2-carbonitrile]"
< 100,1000 to 10000,,"N#Cc1ccc2c(c1)CCC[C@@H]2Nc1ccc2[nH]nc(-c3ccc(Br)cc3)c2c1 (single isomer, unassigned) [Example 95, 5-((3-(4-Bromophenyl)-1H-indazol-5-yl)amino)-5,6,7,8-tetrahydronaphthalene-2-carbonitrile]"
< 100,100 to 1000,,"Cn1ccc(-c2n[nH]c3ccc(N[C@H]4CCCc5cc(C#N)ccc54)cc23)cc1=O (single isomer, unassigned) [Example 97, 5-((3-(1-Methyl-2-oxo-1,2-dihydropyridin-4-yl)-1H-indazol-5-yl)amino)-5,6,7,8-tetrahydronaphthalene-2-carbonitrile]"
< 100,< 100,,"Cc1cncc(-c2n[nH]c3ccc(N[C@H]4CCCc5cc(C#N)ccc54)cc23)c1 (single isomer, unassigned) [Example 100, 5-((3-(5-Methylpyridin-3-yl)-1H-indazol-5-yl)amino)-5,6,7,8-tetrahydronaphthalene-2-carbonitrile]"
